Results from ChEMBL document CHEMBL5506003, “Design and biological evaluation of dual tubulin/HDAC inhibitors based on millepachine for treatment of prostate cancer” (Eur J Med Chem, 2024).
Active and inactive are the calls of the source. The rule behind the calls is not given here.

Key:
MDA-MB-231 = assay: Cytotoxicity against human MDA-MB-231 cells incubated for 72 hrs by MTT assay; format: functional, cell-based; conditions: MDA-MB-231, 72 h
PC-3 [1] = assay: Cytotoxicity against human PC-3 cells incubated for 72 hrs by MTT assay; conditions: PC-3, 72 h
PC-3 [2] = assay: Inhibition of colony formation in human PC-3 cells at 5 nM incubated for 24 hrs followed by replacement with fresh media and measured after 2 weeks by crystal violet staining based assay; format: functional, cell-based
PC-3 [3] = assay: Inhibition of colony formation in human PC-3 cells at 40 nM incubated for 24 hrs followed by replacement with fresh media and measured after 2 weeks by crystal violet staining based assay; format: functional
Tubulin (Homo sapiens) [4] = target: T1, Tubulin (Homo sapiens) (UniProt P68371+Q9H4B7+P0DPH7+P68366+Q13509+Q71U36+P04350+Q3ZCM7+P07437+P68363+Q9BQE3+Q6PEY2+Q13885+Q9BVA1+Q9BUF5); assay: Inhibition of microtubule polymerization in human PC-3 cells assessed as fragmented microtubule filaments at 0.32 uM incubated for 6 hrs by immunofluorescent staining based confocal microscopy assay; format: cell-based
Tubulin (Homo sapiens) [5] = target: T1, Tubulin (Homo sapiens); assay: Inhibition of microtubule polymerization in human PC-3 cells assessed as disorganized microtubule filaments at 0.32 uM incubated for 6 hrs by immunofluorescent staining based confocal microscopy assay; format: cell-based
[6] = target: T2, Protein deacetylase HDAC6 (Homo sapiens) (UniProt Q9UBN7); assay: Inhibition of HDAC6 in human PC-3 cells assessed as increase in acetylated alpha-tubulin level incubated for 24 hrs by Western blotting assay; format: cell-based; conditions: dose 0.08-0.32 µM
T2 sequence (whole entry): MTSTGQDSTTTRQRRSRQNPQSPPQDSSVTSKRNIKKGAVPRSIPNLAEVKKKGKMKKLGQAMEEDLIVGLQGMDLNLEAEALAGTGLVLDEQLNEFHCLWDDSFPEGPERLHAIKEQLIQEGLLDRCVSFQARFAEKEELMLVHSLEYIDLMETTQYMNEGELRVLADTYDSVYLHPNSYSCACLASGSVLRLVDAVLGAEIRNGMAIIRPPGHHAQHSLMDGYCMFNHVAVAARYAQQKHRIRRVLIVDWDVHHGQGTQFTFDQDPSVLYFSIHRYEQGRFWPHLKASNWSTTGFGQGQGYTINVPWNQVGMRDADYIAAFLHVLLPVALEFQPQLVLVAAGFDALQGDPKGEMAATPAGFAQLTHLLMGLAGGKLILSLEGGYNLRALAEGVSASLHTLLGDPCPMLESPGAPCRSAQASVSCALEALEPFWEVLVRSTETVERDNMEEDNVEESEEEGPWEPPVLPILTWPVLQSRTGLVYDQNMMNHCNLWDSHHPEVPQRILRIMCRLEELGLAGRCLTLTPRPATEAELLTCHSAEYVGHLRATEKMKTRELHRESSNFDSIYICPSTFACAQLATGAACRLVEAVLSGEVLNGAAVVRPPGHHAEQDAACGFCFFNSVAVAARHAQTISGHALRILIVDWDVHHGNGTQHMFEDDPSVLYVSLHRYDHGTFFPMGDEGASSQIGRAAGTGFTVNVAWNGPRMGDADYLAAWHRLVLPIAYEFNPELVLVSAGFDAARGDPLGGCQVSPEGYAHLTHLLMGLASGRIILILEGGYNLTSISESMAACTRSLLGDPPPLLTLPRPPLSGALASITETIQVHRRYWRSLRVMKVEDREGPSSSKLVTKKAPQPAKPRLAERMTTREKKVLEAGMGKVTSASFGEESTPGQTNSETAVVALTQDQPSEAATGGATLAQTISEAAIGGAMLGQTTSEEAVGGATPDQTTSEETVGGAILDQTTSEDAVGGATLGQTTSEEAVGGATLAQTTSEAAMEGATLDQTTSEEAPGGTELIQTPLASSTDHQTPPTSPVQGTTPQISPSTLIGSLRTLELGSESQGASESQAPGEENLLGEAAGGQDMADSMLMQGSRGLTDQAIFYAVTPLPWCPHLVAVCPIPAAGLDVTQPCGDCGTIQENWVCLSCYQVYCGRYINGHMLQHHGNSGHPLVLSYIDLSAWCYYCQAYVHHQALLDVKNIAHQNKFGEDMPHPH

[7] = target: Histone deacetylase 3 (Homo sapiens) (UniProt O15379); assay: Inhibition of HDAC3 in human PC-3 cells assessed as increase in acetylated Histone-H3 level incubated for 24 hrs by Western blotting assay; format: cell-based; conditions: dose 0.08-0.32 µM
Histone deacetylase 3 (Homo sapiens), sequence (O15379 whole entry): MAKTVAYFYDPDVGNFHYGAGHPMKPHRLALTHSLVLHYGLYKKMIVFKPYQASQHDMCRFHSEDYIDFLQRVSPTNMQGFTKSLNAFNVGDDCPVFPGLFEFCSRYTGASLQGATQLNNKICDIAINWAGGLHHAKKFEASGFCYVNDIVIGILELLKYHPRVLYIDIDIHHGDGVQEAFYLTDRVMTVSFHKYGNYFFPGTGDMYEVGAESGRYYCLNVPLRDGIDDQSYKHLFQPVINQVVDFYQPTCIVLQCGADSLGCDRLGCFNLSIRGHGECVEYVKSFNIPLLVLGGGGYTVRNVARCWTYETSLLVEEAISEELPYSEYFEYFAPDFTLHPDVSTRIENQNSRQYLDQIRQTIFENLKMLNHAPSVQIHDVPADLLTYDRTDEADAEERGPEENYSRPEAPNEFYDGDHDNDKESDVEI

PC-3 [8] = assay: Induction of cell cycle arrest in human PC-3 cells assessed as G1 phase cells at 0.16 uM incubated for 24 hrs by PI staining based flow cytometry analysis (reference value: 56.17%); format: functional
PC-3 [9] = assay: Induction of apoptosis in human PC-3 cells assessed as necrotic cells at 0.08 uM incubated for 24 hrs by Annexin V-FITC and PI staining based flow cytometry (reference value: 0.13%); format: functional
PC-3 [10] = assay: Induction of apoptosis in human PC-3 cells assessed as viable cells at 0.16 uM incubated for 24 hrs by Annexin V-FITC and PI staining based flow cytometry (reference value: 97.5%); format: functional; conditions: read-out: Activity
PC-3 [11] = assay: Induction of apoptosis in human PC-3 cells assessed as late apoptotic cells at 0.32 uM incubated for 24 hrs by Annexin V-FITC and PI staining based flow cytometry (reference value: 1.02%); format: functional
PC-3 [12] = assay: Induction of apoptosis in human PC-3 cells assessed as necrotic cells at 0.32 uM incubated for 24 hrs by Annexin V-FITC and PI staining based flow cytometry (reference value: 0.13%); format: functional
PC-3 [13] = assay: Induction of apoptosis in human PC-3 cells assessed as downregulation of Bim expression at 0.08 to 0.32 uM by Western blotting analysis; format: functional, cell-based; conditions: dose 0.08-0.32 µM
PC-3 [14] = assay: Induction of mitochondrial membrane potential loss in human PC-3 cells assessed as decrease in JC-1 aggregate level by measuring red fluorescence intensity at 0.16 uM incubated for 24 hrs by JC-1 staining based flow cytometry analysis (reference value: 93.5%); format: functional; set-up: scale not given: the % may be the effect or the level left
PC-3 [15] = assay: Induction of ROS generation in human PC-3 cells at 0.08 uM incubated for 24 hrs by DCFH-DA staining based flow cytometry analysis (reference value: 2.63%); format: functional
HUVEC = assay: Anti-angiogenesis activity against HUVECs assessed as reduction in capillary like tubules at 0.1 to 1.6 uM incubated for 6 hrs by matrigel based microscopic analysis; format: functional, cell-based; conditions: Homo sapiens, dose 0.1-1.6 µM
PC-3 [16] = assay: Antitumor activity against human PC-3 cells xenografted in iv dosed BALB/c nude mouse assessed as tumor growth inhibition administered every 2 days and measured after 3 weeks; format: functional, organism-based; conditions: dose 10-20 mg/kg
[17] = Toxicity in BALB/c nude mouse xenografted with human PC-3 cells assessed as heart damage at 10 to 20 mg/kg, iv administered every 2 days and measured after 3 weeks; format: organism-based; conditions: in vivo, 504 h, dose 10-20 mg/kg
[18] = Toxicity in BALB/c nude mouse xenografted with human PC-3 cells assessed as liver damage at 10 to 20 mg/kg, iv administered every 2 days and measured after 3 weeks; format: organism-based; conditions: in vivo, 504 h, dose 10-20 mg/kg
[19] = Toxicity in BALB/c nude mouse xenografted with human PC-3 cells assessed as spleen damage at 10 to 20 mg/kg, iv administered every 2 days and measured after 3 weeks; format: organism-based; conditions: in vivo, 504 h, dose 10-20 mg/kg

COc1ccc(/C=C/C(=O)c2ccc(OC)c3c2OC(C)(C)C=C3)cc1NCC(=O)NO
IC50 (MDA-MB-231): 340 nM | IC50 (PC-3 [1]): 16 nM | inhibition (PC-3 [2]): Active | inhibition at 0.04 µM (PC-3 [3]): 100% | inhibition (Tubulin (Homo sapiens) [4]): Active | inhibition (Tubulin (Homo sapiens) [5]): Active | inhibition [6]: Dose-Dependent Effect | inhibition [7]: Dose-Dependent Effect | Activity (PC-3 [8]): 18.7% | Activity (PC-3 [9]): 0.041% | viability at 0.16 µM (PC-3 [10]): 78.8% | Activity (PC-3 [11]): 8.39% | Activity (PC-3 [12]): 0.19% | Activity (PC-3 [13]): Active | Activity (PC-3 [14]): 77.9% | Activity (PC-3 [15]): 45.7% | Activity (HUVEC): Active | Activity (PC-3 [16]): Dose-Dependent Effect | Activity [17]: Non-Toxic | Activity [18]: Non-Toxic | Activity [19]: Non-Toxic
